According to patent US20160024062A1, “ISOXAZOLINE DERIVATIVES FOR CONTROLLING INVERTEBRATE PESTS” (NOVARTIS TIERGESUNDHEIT AG, priority 2011, published 2016):

Legend:
[1] = test system: Ctenocephalides felis (cat flea); assay: Activity in vivo against Ctenocephalides felis (cat flea) on Mongolian gerbils (per oral application); settings: dose 3.2 mg/kg, oral gavage, live fleas counted 48 h after infestation, vs placebo (Abbot's formula)
Experimental: On day 0, gerbils are treated orally by gavage with the test compound formulated at a given dose. Immediately after treatment, they are infested with a mixed adult population of cat fleas. Evaluation of efficacy is performed 48 h infestation by counting the numbers of live fleas recovered from the gerbils. Efficacy is expressed as comparison with a placebo treated group using the Abbot's formula.

[2] = test system: Rhipicephalus sanquineus nymphs; assay: Activity in vivo against Rhipicephalus sanquineus nymphs on Mongolian gerbils (spray application); settings: engorged nymphs counted seven days after infestation, vs placebo (Abbot's formula)
Experimental: On day 0, gerbils are treated with the test compound at a given dose by spray application. On day +1 (+2), the animals are infested with nymphs of R. sanguineus. Ticks are left on the animals until full repletion. Seven days after infestation nymphs dropped off fully engorged are collected and counted. Efficacy in killing is expressed as a tick number reduction in comparison with a placebo treated group, using the Abbot's formula.

[3] = test system: Ctenocephalides felis (cat flea); assay: Activity in vivo against Ctenocephalides felis (cat flea) on Mongolian gerbils (spray application); settings: live fleas counted 24 h and 48 h after infestation, vs placebo (Abbot's formula)
Experimental: On day 0, gerbils are treated with the test compound at a given dose by spray application. On day +1, the animals are infested with a mixed adult population of cat fleas. Evaluation of efficacy is performed 24 h and 48 h infestation by counting the numbers of live fleas recovered from the gerbils. Efficacy is expressed as comparison with a placebo treated group using the Abbot's formula.

Row | SMILES | Efficacy in killing % [1] [%] | Efficacy in killing % ([2]; dose 10 mg/kg) [%] | Efficacy in killing % ([3]; dose 10 mg/kg) [%] | melting point [°C] | Efficacy in killing % ([2]; dose 100 mg/kg) [%] | Efficacy in killing % ([3]; dose 32 mg/kg) [%]
1 | Cc1oc(C2=NOC(c3cc(Cl)cc(Cl)c3)(C(F)(F)F)C2)cc1C(=O)NCC(=O)NCC(F)(F)F (stereo not drawn) [Compound 1.19, 5-(5-(3,5-dichlorophenyl)-5-(trifluoromethyl)-4,5-dihydroisoxazol-3-yl)-2-methyl-N-(2-oxo-2-((2,2,2-trifluoroethyl)amino)ethyl)furan-3-carboxamide] | 99 | 100 | 94 | 172 to 174 | – | –
2 | Cc1sc(C2=NOC(c3cc(Cl)cc(Cl)c3)(C(F)(F)F)C2)cc1C(=O)NCC(=O)NCC#N (stereo not drawn) [Compound 1.32, N-(2-((cyanomethyl)amino)-2-oxoethyl)-5-(5-(3,5-dichlorophenyl)-5-(trifluoromethyl)-4,5-dihydroisoxazol-3-yl)-2-methylthiophene-3-carboxamide] | – | – | – | – | 85 | 96
